Measured values: patent US20100144712A1 (priority 2007, published 2010)
≈ marks a conversion by molar mass, not a printed value.

What was measured:
Type in all cases: cell-based
[1] = system: Aspergillus fumigatus (ATCC 16424); experiment: In vitro antifungal activity (MIC80), Aspergillus fumigatus ATCC 16424; conditions: Aspergillus fumigatus, ATCC16424, Table 2, ATCC 16424; read-out: Minimal inhibitory concentration (MIC80)
Protocol: (§1) In vitro antifungal activities of the inventive antifungal compounds were evaluated using test strains including Candida albican (ATCC 90873, 204276, 62342, 64124, 64550, 96901, MYA-573, MYA-574, MYA-575, MYA-576, MYA-1003) and Aspergillus fumigatus (ATCC 16424). Test samples and positive control samples were prepared by dissolving the inventive compounds and comparative compounds, i.e., amphotericin B, fluconazole and itraconazole, in DMSO, respectively, and each successively diluted with medium to obtain test and positive control solutions having test compound concentrations of 0.125 μg/ml to a maximum concentration not generating turbidity. Minimal inhibitory concentration (MIC80) of each compound was determined as the lowest concentration of the test compounds required to reduce growth by 80% relative to a control strain not treated.
(§2) 1) Test strain: Candida albican ATCC 90873, 204276, 62342, 64124, 64550, 96901, MYA-573, MYA-574, MYA-575, MYA-576, MYA-1003, and Aspergillus fumigatus ATCC 16424 were commercially obtained from The American Type Culture Collection (ATCC) and subcultured in CHEMON Co. Ltd. (amphotericin B was commercially purchased from Sigma, and fluconazole and itraconazole were prepared according to methods described in British Patent No. 2,099,818; and U.S. Pat. No. 4,267,179, respectively).
(§3) 2) Medium and culture condition: Candida albican was cultured in Sabourad Dextrose Agar, YM Agar or Potato Dextrose Agar according to ATCC information at a temperature of 37° C., 35° C., 30° C. or 25° C. Aspergillus fumigatus was cultured in Malt Extract Agar or Potato Dextrose Agar at a temperature ranging from 24 to 27° C.
(§4) 3) Preparation of test samples: the inventive compounds and comparative compounds were each diluted with DMSO to obtain 1 to 2 ml of a test sample in a concentration of 100-folds of the determining maximum concentration (256 μg/ml).
(§5) The test samples were each successively diluted with RPMI 1640 to obtain test solutions having concentrations of […] in a 12×75 mm sterilized disposable culture tube. The final concentration of DMSO was adjusted to […] (v/v).
(§6) 5) Preparation of strain solution and inoculation
(§7) Candida albican strains were each subcultured in Sabourad Dextrose Agar, YM Agar or Potato Dextrose Agar medium at 35° C. for 2˜3 days. In the case of yeasts, a single colony was taken from prominent colonies and suspended in 0.85% sterile physiological saline solution and the turbidity of the suspension was adjusted to 80˜82% at 530 nm, and then diluted 50-fold with RPMI 1640 medium to 1.0×10^3˜5.0×10^3 CFU/ml. The turbidity of fungi was adjusted to 80˜82% and the suspension was diluted 50-fold to […]. Aspergillus fumigatus strains were subcultured in Malt Extract Agar for 7˜10 days, and a single colony was taken from prominent colonies and suspended in 0.85% sterile physiological saline solution and the suspension was adjusted to 0.108 at 530 nm, and then diluted 1000-fold with RPMI 1640 medium to 0.4×10^2˜5×10^4 CFU/ml. The turbidity of fungi was adjusted to 80˜82% and the suspension was diluted 50-fold to 0.4102˜0.5104 CFU/ml.
(§8) The strain solutions thus obtained were each seeded into a sterilized 96-well microplate, 0.1 ml of each test solution were added thereto, and […] of alamarblue was treated to each well (Biosource, #DAL1100). This procedure was repeated 2 times.
(§9) Minimal inhibitory concentration (MIC80) of each compound was determined as the lowest concentration of the test compounds required to reduce growth by 80% relative to a control strain not treated.
MIC80 of each of the compounds of which antifungal activities can be confirmed by Table 2 was determined using other test strains, i.e., Aspergillus fumigatus ATCC 16424 and MYA-1163, Aspergillus terreus ATCC 28301, Aspergillus flavus ATCC MYA-1004, and Aspergillus niger ATCC 9142.

[2] = system: Candida albican ATCC 90873; experiment: In vitro antifungal activity (MIC80), Candida albican ATCC 90873; conditions: Candida, ATCC90873; Table 2, ATCC 90873; read-out: Minimal inhibitory concentration (MIC80)
Outline: (§10)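 MIC80 is the lowest concentration that cuts growth by 80% compared with untreated cells, with alamarBlue as the growth read-out. Compounds were serially diluted in RPMI 1640 (0.25–256 […]; DMSO 2% v/v final) and added to 1.0×10^3–5.0×10^3 CFU/ml yeast suspensions, in duplicate runs.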

[3] = system: Candida albican ATCC 96901; experiment: In vitro antifungal activity (MIC80), Candida albican ATCC 96901; conditions: Candida, ATCC96901; Table 2, ATCC 96901; read-out: Minimal inhibitory concentration (MIC80)
Outline: as §10

[4] = system: Candida albican ATCC MYA-1003; experiment: In vitro antifungal activity (MIC80), Candida albican ATCC MYA-1003; conditions: Candida; Table 2, MYA 1003; read-out: Minimal inhibitory concentration (MIC80)
Outline: as §10

[5] = system: Candida albican ATCC 204276; experiment: In vitro antifungal activity (MIC80), Candida albican ATCC 204276; conditions: ATCC204276, Table 2, 204276, read-out: Minimal inhibitory concentration (MIC80)
Protocol: as §1, §2, §3, §4, §5, §6, §7, §8, §9

[6] = system: Candida albican ATCC 62342; experiment: In vitro antifungal activity (MIC80), Candida albican ATCC 62342; conditions: Candida, ATCC62342; Table 2, 62342; read-out: Minimal inhibitory concentration (MIC80)
Outline: as §10

[7] = system: Candida albican ATCC 64124; experiment: In vitro antifungal activity (MIC80), Candida albican ATCC 64124; conditions: Candida, ATCC64124; Table 2, 64124; read-out: Minimal inhibitory concentration (MIC80)
Outline: as §10

[8] = system: Candida albican ATCC 64550; experiment: In vitro antifungal activity (MIC80), Candida albican ATCC 64550; conditions: Candida, ATCC64550; Table 2, 64550; read-out: Minimal inhibitory concentration (MIC80)
Outline: as §10

[9] = system: Candida albican ATCC MYA-573; experiment: In vitro antifungal activity (MIC80), Candida albican ATCC MYA-573; conditions: Candida; Table 2, MYA 573; read-out: Minimal inhibitory concentration (MIC80)
Outline: as §10

[10] = system: Candida albican ATCC MYA-574; experiment: In vitro antifungal activity (MIC80), Candida albican ATCC MYA-574; conditions: Candida; Table 2, MYA 574; read-out: Minimal inhibitory concentration (MIC80)
Outline: as §10

[11] = system: Candida albican ATCC MYA-575; experiment: In vitro antifungal activity (MIC80), Candida albican ATCC MYA-575; conditions: Candida; Table 2, MYA 575; read-out: Minimal inhibitory concentration (MIC80)
Outline: as §10

[12] = system: Candida albican ATCC MYA-576; experiment: In vitro antifungal activity (MIC80), Candida albican ATCC MYA-576; conditions: Candida; Table 2, MYA 576; read-out: Minimal inhibitory concentration (MIC80)
Outline: as §10

SMILES | MIC80 [1] [µg/mL] | MIC80 [2] [µg/mL] | MIC80 [3] [µg/mL] | MIC80 [4] [µg/mL] | MIC80 [5] [µg/mL] | MIC80 [6] [µg/mL] | MIC80 [7] [µg/mL] | MIC80 [8] [µg/mL] | MIC80 [9] [µg/mL] | MIC80 [10] [µg/mL] | MIC80 [11] [µg/mL] | MIC80 [12] [µg/mL]
C[C@@H](N1CCN(c2nc3ccccc3n2C)CC1)[C@](O)(Cn1cncn1)c1ccc(F)cc1F [Example 3, (2R,3R)-2-(2,4-difluorophenyl)-3-(4-(1-methyl-1H-benzoimidazol-2-yl)piperazin-1-yl)-1-(1H-1,2,4-triazol-1-yl)butan-2-ol] | 1 (≈ 2.14 µM) | 0.125 (≈ 0.267 µM) | 4 (≈ 8.56 µM) | > 128 | 0.125 (≈ 0.267 µM) | 8 (≈ 17.1 µM) | 16 (≈ 34.2 µM) | 2 (≈ 4.28 µM) | 4 (≈ 8.56 µM) | 16 (≈ 34.2 µM) | 16 (≈ 34.2 µM) | 0.125 (≈ 0.267 µM)
C[C@@H](N1CCN(c2ncccn2)CC1)[C@](O)(Cn1cncn1)c1ccc(F)cc1F [Example 18, (2R,3R)-2-(2,4-difluorophenyl)-3-(4-(pyrimidin-2-yl)piperazin-1-yl)-1-(1H-1,2,4-triazol-1-yl)butan-2-ol] | 0.125 (≈ 0.301 µM) | 0.125 (≈ 0.301 µM) | 8 (≈ 19.3 µM) | > 128 | 0.125 (≈ 0.301 µM) | 4 (≈ 9.63 µM) | 16 (≈ 38.5 µM) | 2 (≈ 4.81 µM) | 1 (≈ 2.41 µM) | > 128 | > 128 | 0.125 (≈ 0.301 µM)
C[C@@H](N1CCN(c2ccc(C#N)nc2)CC1)[C@](O)(Cn1cncn1)c1ccc(F)cc1F [Example 17, 5-(4-((2R,3R)-3-(2,4-difluorophenyl)-3-hydroxy-4-(1H-1,2,4-triazol-1-yl)butan-2-yl)piperazin-1-yl)picolinonitrile] | 8 (≈ 18.2 µM) | 0.125 (≈ 0.284 µM) | 8 (≈ 18.2 µM) | 32 (≈ 72.8 µM) | 0.125 (≈ 0.284 µM) | 2 (≈ 4.55 µM) | 16 (≈ 36.4 µM) | 1 (≈ 2.28 µM) | 0.25 (≈ 0.569 µM) | 64 (≈ 146 µM) | 64 (≈ 146 µM) | 0.125 (≈ 0.284 µM)
C[C@@H](N1CCN(Cc2cccs2)CC1)[C@](O)(Cn1cncn1)c1ccc(F)cc1F [Example 44, (2R,3R)-2-(2,4-difluorophenyl)-3-(4-((thiophen-2-yl)methyl)piperazin-1-yl)-1-(1H-1,2,4-triazol-1-yl)butan-2-ol] | 0.5 (≈ 1.15 µM) | 0.125 (≈ 0.288 µM) | 64 (≈ 148 µM) | > 128 | 0.125 (≈ 0.288 µM) | 4 (≈ 9.23 µM) | 32 (≈ 73.8 µM) | 4 (≈ 9.23 µM) | 2 (≈ 4.61 µM) | 32 (≈ 73.8 µM) | 32 (≈ 73.8 µM) | 0.125 (≈ 0.288 µM)
C[C@@H](N1CCN(Cc2ccco2)CC1)[C@](O)(Cn1cncn1)c1ccc(F)cc1F [Example 43, (2R,3R)-2-(2,4-difluorophenyl)-3-(4-((furan-2-yl)methyl)piperazin-1-yl)-1-(1H-1,2,4-triazol-1-yl)butan-2-ol] | 64 (≈ 153 µM) | 0.125 (≈ 0.299 µM) | 64 (≈ 153 µM) | > 128 | 0.125 (≈ 0.299 µM) | 4 (≈ 9.58 µM) | 64 (≈ 153 µM) | 16 (≈ 38.3 µM) | 4 (≈ 9.58 µM) | 128 (≈ 307 µM) | 128 (≈ 307 µM) | 0.25 (≈ 0.599 µM)

Next, values leading:

MIC80 [1] [µg/mL] | MIC80 [2] [µg/mL] | MIC80 [3] [µg/mL] | MIC80 [4] [µg/mL] | MIC80 [5] [µg/mL] | MIC80 [6] [µg/mL] | MIC80 [7] [µg/mL] | MIC80 [8] [µg/mL] | MIC80 [9] [µg/mL] | MIC80 [10] [µg/mL] | MIC80 [11] [µg/mL] | MIC80 [12] [µg/mL] | SMILES
0.5 (≈ 0.804 µM) | 0.125 (≈ 0.201 µM) | 8 (≈ 12.9 µM) | > 128 | 0.125 (≈ 0.201 µM) | 0.5 (≈ 0.804 µM) | 8 (≈ 12.9 µM) | 4 (≈ 6.43 µM) | 1 (≈ 1.61 µM) | 8 (≈ 12.9 µM) | 8 (≈ 12.9 µM) | 0.125 (≈ 0.201 µM) | COc1ccc(C(=O)c2cnc3sc(C(=O)N4CCN(C(C)C(O)(Cn5cncn5)c5ccc(F)cc5F)CC4)cn23)cc1 (stereo not drawn) [Example 57]
0.5 (≈ 1.06 µM) | 0.125 (≈ 0.266 µM) | 2 (≈ 4.25 µM) | 128 (≈ 272 µM) | 0.125 (≈ 0.266 µM) | 0.5 (≈ 1.06 µM) | 4 (≈ 8.5 µM) | 1 (≈ 2.13 µM) | 0.25 (≈ 0.531 µM) | 8 (≈ 17 µM) | 8 (≈ 17 µM) | 0.125 (≈ 0.266 µM) | C[C@@H](N1CCN(c2nc3ccccc3s2)CC1)[C@](O)(Cn1cncn1)c1ccc(F)cc1F [Example 2, (2R,3R)-3-(4-(benzothiazol-2-yl)piperazin-1-yl)-2-(2,4-difluorophenyl)-1-(1H-1,2,4-triazol-1-yl)butan-2-ol]
1 (≈ 1.69 µM) | 0.125 (≈ 0.211 µM) | 8 (≈ 13.5 µM) | > 128 | 0.125 (≈ 0.211 µM) | 0.5 (≈ 0.845 µM) | 16 (≈ 27 µM) | 4 (≈ 6.76 µM) | 1 (≈ 1.69 µM) | 8 (≈ 13.5 µM) | 8 (≈ 13.5 µM) | 0.125 (≈ 0.211 µM) | CC(N1CCN(C(=O)c2cn3c(C(=O)c4ccccc4)cnc3s2)CC1)C(O)(Cn1cncn1)c1ccc(F)cc1F [Example 55, (4-((2R,3R)-3-(2,4-difluorophenyl)-3-hydroxy-4-(1H-1,2,4-triazol-1-yl)butan-2-yl)piperazin-1-yl)(5-benzoyl-imidazo[2,1,-b]-thiazol-2-yl)methanone]
16 (≈ 38.6 µM) | 0.125 (≈ 0.302 µM) | 16 (≈ 38.6 µM) | 64 (≈ 154 µM) | 0.125 (≈ 0.302 µM) | 1 (≈ 2.41 µM) | 8 (≈ 19.3 µM) | 1 (≈ 2.41 µM) | 0.5 (≈ 1.21 µM) | 32 (≈ 77.2 µM) | 32 (≈ 77.2 µM) | 0.125 (≈ 0.302 µM) | C[C@@H](N1CCN(c2ccccn2)CC1)[C@](O)(Cn1cncn1)c1ccc(F)cc1F [Example 16, (2R,3R)-2-(2,4-difluorophenyl)-3-(4-(pyridin-2-yl)piperazin-1-yl)-1-(1H-1,2,4-triazol-1-yl)butan-2-ol]
